What was measured:
Type in all cases: functional, cell-based
U-937 = test: Antiproliferative activity against human U937 cells after 48 hrs by MTT assay; conditions: U-937, 48 h
THP-1 = test: Antiproliferative activity against human THP1 cells after 48 hrs by MTT assay; conditions: THP-1, 48 h
COLO 205 = test: Antiproliferative activity against human COLO205 cells after 48 hrs by MTT assay; conditions: COLO 205, 48 h
HepG2 = test: Antiproliferative activity against human HepG2 cells after 48 hrs by MTT assay; conditions: HepG2, 48 h
B16-F10 = test: Antiproliferative activity against mouse B16F10 cells after 48 hrs by MTT assay; conditions: B16-F10, 48 h

| SMILES | IC50 (U-937) [µM] | IC50 (THP-1) [µM] | IC50 (COLO 205) [µM] | IC50 (HepG2) [µM] | IC50 (B16-F10) [µM] |
| --- | --- | --- | --- | --- | --- |
| O=C(/C=C/[C@@H](O)Cc1ccccc1)CCc1ccccc1 | 168 | 195 | 498 | 355 | 337 |
| COc1cc([C@@H]2c3cc4c(cc3[C@@H](O[C@@H]3O[C@@H]5CO[C@@H](C)O[C@H]5[C@H](O)[C@H]3O)[C@H]3COC(=O)[C@H]23)OCO4)cc(OC)c1O [ETOPOSIDE] | – | – | 0.43 | 4.76 | 18.7 |

Further compounds by falling IC50 (COLO 205), results first:

| IC50 (U-937) [µM] | IC50 (THP-1) [µM] | IC50 (COLO 205) [µM] | IC50 (HepG2) [µM] | IC50 (B16-F10) [µM] | SMILES |
| --- | --- | --- | --- | --- | --- |
| 139 | 120 | 195 | 185 | 130 | O=C(/C=C/[C@H](O)Cc1ccccc1)CCc1ccccc1 |
| 22.3 | 7.53 | 11.1 | 32.6 | 38.1 | COc1ccc(CCC(=O)/C=C/[C@H](O)Cc2ccccc2)cc1OC |
| 31.9 | 32.3 | 7.21 | 53.5 | 96.9 | COc1ccc(CCC(=O)/C=C/[C@@H](O)Cc2ccccc2)cc1OC |

— ChEMBL document CHEMBL2029343, “Stereoselective synthesis of alpinoid-C and its analogues and study of their cytotoxic activity against cancer cell lines” (Bioorg Med Chem Lett, 2012)
